Reference: patent US20030202977A1, “Treatment of osteoarthritis” (New York University, priority 1998, published 2003)
Marks after values point to notes of the source that are not given here. Each block holds one molecule with its values, some of them ahead of it.

Key:
[1] = test system: human osteoarthritis-affected cartilage; assay: Osteoarthritis-explant assay: release of inflammatory mediators from cartilage organ cultures; type: cell-based; conditions: for Effect on PGE2 production / Effect on NO production/accumulation: osteoarthritis-affected cartilage; for Effect on NO production/accumulation: compared to control cartilage; for Nitrite / PGE2: per 100 mg cartilage, 72 hours post stimulation, mean ± S.D., n=3; for Nitrite: JBS5 0.5 μg/ml, αvβ3 Abs 5 μg/ml, L-NMMA 500 μM, IL-1β 1 ng/ml, RGD or RGE 1 mg/ml, control 1.2 ± 0.2; for PGE2: control 13.1 ± 0.2
Text: ELISA kits for IL-1β, IL-6 and IL-8 were purchased from R and D (Minneapolis, Minn.). Cyclic RGD and RGE peptides were procured form Bachem Biosciences, Inc. (King of Prussia, Pa.). Anti-αvβ3 (JBS5) and anti-3 (LM609) were purchased from Chemicon International (Temecula, Calif.). Another anti-αvβ3 antibody (mAb13) was a generous gift from Dr. Yamada (NIH, Bethesda, Md.).
Cartilage slices were taken from the knees of patients who had been diagnosed with advanced osteoarthritis, ages 50-70 years, who were undergoing knee replacement surgery. Non-arthritic knee cartilage, normal control, ages 20-70 years, was obtained from patients with fractures or from accident victims after knee amputation.
Knee articular cartilage from osteoarthritis patients or normal individuals was cut into 3 mm discs, and 4-6 discs were placed (triplicate or quadruplicate) into a 24-well plate containing 2 ml F-12 medium+0.1% human albumin in the presence or absence of anti-αvβ3 (JBS5) or anti-3 (LM609) antibodies along with various modulators, as previously described by Amin et al (1995 and 1997).
(§1) NO production was measured by estimating the stable NO metabolite, nitrite, in condition medium by modified Griess reaction, Gilliam et al (1993). PGE2 was analyzed from supernatant by RIA, Amin et al (1997).
OA-affected cartilage was incubated in the medium with various modulators: 0.5 μg/ml of α5β1 (JBS5), 5 μg/ml αvβ3 Abs, L-NMMA (500 μM), IL-1β (1 ng/ml), 1 mg/ml of RGD or RGE. The accumulation of IL-1β, IL-8, IL-6, nitrite and PGE2 were estimated 72 hours post stimulation. Data represents±S.D. where n=3. The P values described are compared with the (control) unstimulated OA-affected cartilage. The data represent one of the two similar experiments.

[2] = test system: primary bovine chondrocytes; assay: NO and PGE2 production in primary bovine chondrocytes; type: cell-based
Method: Bovine chondrocytes were seeded in 24 well plates at a density of 0.5×10^6 cells/well in 2 ml medium. After 24 hours post-seeding, the cells were treated with either 50 ng of JBS5 monoclonal antibody or 1 ng/ml IL-1β alone and in the presence and absence of 0.5 μg/ml of sIL-1RII for 72 hours. NO and PGE2 were estimated as described in Materials and Methods. The data present one of the two similar experiments. Data represent mean±s.d. value. The p values described are compared with IL-l (*) or anti-α5β1 monoclonal antibody (**); *p≦0.01, **p≦0.01.
Bovine chondrocytes were seeded in 24 well plates and stimulated with 1 ng/ml Il-1β, 100 μg/ml LPS, IL-1β+LPS+TNFα and anti-α5β1 monoclonal antibody in the presence or absence of 5 μg/ml anti-αvβ3. The accumulation of NO and PGE2 was estimated at the end of 72 hours. The data represent one of the two similar experiments the data represent mean±s.d. value.
Bovine chondrocytes were isolated as previous described by Attur et al 1998. Briefly, cartilage slices from bovine cartilage were finely minced and digested sequentially with 0.2% testicular hyaluronidase for five minutes at 37° C., and 0.2% collagenase for 1-2 hours at 37° C. After being strained through sterile nylon mesh, the cells were centrifuged at 1200×g for ten minutes. The cell pellets were washed twice with Ham's F-12 medium, followed by resuspension and centrifuging at 1000×g for ten minutes. Finally, the pellets were suspended in complete F-12 medium before being plated to flasks.
as §1

[3] = molecular target: α5β1 integrin of human cartilage chondrocytes (human) (UniProt P08648); assay: cell-based or functional assay
Sequence of UniProt P08648 (P08648 42-1049, chain 1 of 2): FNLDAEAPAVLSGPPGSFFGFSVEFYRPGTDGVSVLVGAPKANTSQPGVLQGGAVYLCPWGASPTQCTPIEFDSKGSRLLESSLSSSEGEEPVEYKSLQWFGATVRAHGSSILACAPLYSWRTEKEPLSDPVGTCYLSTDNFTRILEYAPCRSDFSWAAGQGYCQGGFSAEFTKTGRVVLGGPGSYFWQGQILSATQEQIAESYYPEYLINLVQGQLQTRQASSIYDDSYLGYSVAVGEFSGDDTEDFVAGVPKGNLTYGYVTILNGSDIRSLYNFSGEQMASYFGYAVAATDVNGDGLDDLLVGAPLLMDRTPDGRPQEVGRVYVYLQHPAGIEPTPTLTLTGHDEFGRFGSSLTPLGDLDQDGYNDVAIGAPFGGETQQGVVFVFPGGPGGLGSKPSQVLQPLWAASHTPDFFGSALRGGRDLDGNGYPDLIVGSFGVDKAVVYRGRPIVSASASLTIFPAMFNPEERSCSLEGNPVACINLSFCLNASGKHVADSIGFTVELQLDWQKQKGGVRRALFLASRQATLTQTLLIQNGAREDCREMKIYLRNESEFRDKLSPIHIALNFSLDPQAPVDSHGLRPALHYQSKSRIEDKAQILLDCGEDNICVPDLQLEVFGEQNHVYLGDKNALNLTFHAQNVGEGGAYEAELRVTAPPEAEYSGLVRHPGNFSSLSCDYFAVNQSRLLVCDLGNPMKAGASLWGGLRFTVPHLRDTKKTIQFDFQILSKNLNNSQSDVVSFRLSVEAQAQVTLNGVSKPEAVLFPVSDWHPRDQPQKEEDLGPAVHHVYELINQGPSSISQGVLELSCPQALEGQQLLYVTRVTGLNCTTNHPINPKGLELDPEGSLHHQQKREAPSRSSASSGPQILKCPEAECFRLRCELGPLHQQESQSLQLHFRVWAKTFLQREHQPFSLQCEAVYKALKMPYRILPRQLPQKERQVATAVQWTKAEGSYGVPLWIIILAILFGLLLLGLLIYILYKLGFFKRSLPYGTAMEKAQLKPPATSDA
Sequence of UniProt P08648 (P05556 21-798, chain 2 of 2, further chain): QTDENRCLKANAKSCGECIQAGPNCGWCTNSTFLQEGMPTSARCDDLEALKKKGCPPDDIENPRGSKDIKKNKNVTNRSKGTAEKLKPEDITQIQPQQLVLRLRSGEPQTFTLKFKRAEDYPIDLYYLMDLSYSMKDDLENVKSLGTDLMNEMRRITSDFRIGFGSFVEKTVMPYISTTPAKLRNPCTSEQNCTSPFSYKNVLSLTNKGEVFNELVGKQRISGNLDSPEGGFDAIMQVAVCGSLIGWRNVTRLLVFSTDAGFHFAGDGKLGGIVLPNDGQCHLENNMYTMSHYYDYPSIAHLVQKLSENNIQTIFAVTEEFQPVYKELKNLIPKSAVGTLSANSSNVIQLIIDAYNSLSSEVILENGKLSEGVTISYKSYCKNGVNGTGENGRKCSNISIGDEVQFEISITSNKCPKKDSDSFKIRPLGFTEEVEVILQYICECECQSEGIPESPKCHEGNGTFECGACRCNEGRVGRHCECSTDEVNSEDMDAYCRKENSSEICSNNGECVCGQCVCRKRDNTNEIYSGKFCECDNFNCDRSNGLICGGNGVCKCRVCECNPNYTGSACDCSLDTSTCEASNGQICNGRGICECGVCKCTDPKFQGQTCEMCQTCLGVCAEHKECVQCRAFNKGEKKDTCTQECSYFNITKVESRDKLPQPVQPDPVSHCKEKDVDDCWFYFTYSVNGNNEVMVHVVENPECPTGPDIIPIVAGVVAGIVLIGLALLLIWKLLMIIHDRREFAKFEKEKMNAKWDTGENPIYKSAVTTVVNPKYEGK

chondrocytes = assay: Nitric oxide versus PGE2 production in chondrocytes; type: cell-based

Molecule: CNC(=N)NCCC[C@H](N)C(=O)O [NMMA]
Effect on PGE2 production [1]: augmented
Effect on NO production/accumulation [1]: inhibition
Nitrite [1]: 0.8 ± 0.1^c μM
PGE2 [1]: 18.4 ± 0.8^c ng/ml

Molecule: IL-1β: cytokine used as positive control, 1 ng/ml
Effect on PGE2 production [1]: augmented
Effect on NO production/accumulation [1]: augmented
Nitrite [1]: 17.3 ± 2.4^a μM
PGE2 [1]: 29.6 ± 7.2^c ng/ml
Effect on NO and PGE2 (inflammatory mediator) production, substance added as modulator ([2]; primary bovine chondrocytes): up-regulation

IL-1β, human OA-affected cartilage explants, 72 h, 0.5 µg/ml JBS5 (pg/ml per 100 mg cartilage) [3]: 87.6
IL-6, human OA-affected cartilage explants, 72 h, 0.5 µg/ml JBS5 (ng/ml per 100 mg cartilage) [3]: 17.7
IL-8, human OA-affected cartilage explants, 72 h, 0.5 µg/ml JBS5 (ng/ml per 100 mg cartilage) [3]: 17.7
Nitrite, human OA-affected cartilage explants, 72 h, 0.5 µg/ml JBS5 (µM per 100 mg cartilage) [3]: 12.7
PGE2, human OA-affected cartilage explants, 72 h, 0.5 µg/ml JBS5 (ng/ml per 100 mg cartilage) [3]: 19.1
Molecule: JBS5 monoclonal antibody

Molecule: osteopontin: soluble secretory phosphoprotein, ligand of αvβ3
Effect on NO production/accumulation [1]: inhibited
Inhibition of PGE2 production relative to nitric oxide production (chondrocytes): equally inhibit

B1: sIL-1RII: recombinant soluble type II IL-1 receptor cloned from human neutrophils, released from Sf9 insect cells (protein)
chain: FTLQPAAHTGAARSCRFRGRHYKREFRLEGEPVALRCPQVPYWLWASVSPRINLTWHKNDSARTVPGEEETRMWAQDGALWLLPALQEDSGTYVCTTRNASYCDKMSIELRVFENTDAFLPFISYPQILTLSTSGVLVCPDLSEFTRDKTDVKIQWYKDSLLLDKDNEKFLSVRGTTHLLVHDVALEDAGYYRCVLTFAHEGQQYNITRSIELRIKKKKEETIPVIISPLKTISASLGSRLTIPCKVFLGTGTPLTTMLWWTANDTHIESAYPGGRVTEGPRQEYSENNENYIEVPLIFDPVTREDLHMDFKCVVHNTLSFQTLRTTVKE
Effect on production of IL-1, nitric oxide, PGE2, IL-6, IL-8 and MMPs ([1]; human arthritis affected cartilage, ex vivo, in the presence or absence of IL-1): inhibits
Effect on IL-1β and JBS5 monoclonal antibody induced NO and PGE2 production ([1]; osteoarthritis cartilage explants, FIG. 1b): inhibited significantly
Effect on IL-1β induced accumulation of NO and PGE2 ([2]; preincubation of cells for fifteen minutes): blocked
Effect on anti-αvβ3 monoclonal antibody induced production of NO and PGE2 ([2]; preincubation of cells for fifteen minutes, inducer is JBS5): blocked
